Measured values: US20160281050A1, “METHODS FOR TREATING A CULTURE OF HAEMATOCOCCUS PLUVIALIS FOR CONTAMINATION USING SALT AND HYDROGEN PEROXIDE” (HELIAE DEVELOPMENT LLC, priority 2015, published 2016)
Read-outs that look alike come from different tables or passages of the source.

What was measured:
[1] = test system: Haematococcus pluvialis (Strain 1) green swimmer cells; details: for % Lysis: samples from Bioreactor #2430 48 hours after transfer
Experimental: A series of experiments were conducted to determine if treating a culture of Haematococcus pluvialis with hydrogen peroxide prevents lysis.

[2] = test system: red cyst cells of Haematococcus pluvialis (Strain 2)
Experimental: (§1) The calculated concentrations of the hydrogen peroxide doses tested were 0.0105, 0.0140, 0.0175, 0.0210, and 0.0245 mL/L. The amount of cell lysis was quantified using visual observation under a microscope after 24, 48, and 72 hours.

[3] = test system: Green swimmer cells of Haematococcus pluvialis (Strain 2)
Experimental: as §1

[4] = test system: Haematococcus pluvialis (Strain 2); experiment: % lysis and culture dry weight in flasks (Example 10);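 note: flask cultures run in duplicate, with duplicate untreated flasks serving as controls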
From the text: Culture samples of Haematococcus pluvialis (Strain 2) were collected on the second day of the culture from open raceway bioreactor #2430 operating in conditions: reactor volume of 170,000 L; Daily PAR not measured; pH of 7.3; and paddlewheel speed of 70. The culture samples were distributed into flasks for culturing, consisting of duplicate untreated controls and duplicate treatments. […] Samples were taken from the flask cultures daily to quantify % lysis and % chytrid infection and cell dry weight was quantified every other day for a duration of 11 days.

[5] = 0.0140 mL/L three times per day, 24 h
[6] = 0.0140 mL/L three times per day, 48 h
[7] = 0.0140 mL/L three times per day, 72 h
[8] = 0.0175 mL/L three times per day, 24 h
[9] = 0.0175 mL/L three times per day, 48 h
[10] = 0.0175 mL/L three times per day, 72 h
[11] = 0.0210 mL/L three times per day, 24 h
[12] = 0.0210 mL/L three times per day, 48 h
[13] = 0.0210 mL/L three times per day, 72 h
[14] = 0.0245 mL/L three times per day, 24 h
[15] = 0.0245 mL/L three times per day, 48 h
[16] = 0.0245 mL/L three times per day, 72 h
[17] = 0.0140 mL/L 1 time per day, day 0
[18] = 0.0140 mL/L 1 time per day, day 3
[19] = 0.0140 mL/L 1 time per day, day 4
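Throughout, for % Chytrid infection: flask cultures run as treated duplicates beside untreated duplicate controls, with dosing halted by day 5 once lysis topped 10% and recovery afterwards tracked.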
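Throughout, for Chytrid infection: flask cultures run as treated duplicates beside untreated duplicate controls, with dosing halted by day 5 once lysis topped 10% and recovery afterwards tracked.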

From the text for chytrids: Culture samples of Haematococcus pluvialis (Strain 2) were collected on day 5 of the culture from open raceway bioreactor #2420 operating in conditions: reactor volume of 170,000 L; Daily PAR not measured; pH of 7.3; and paddlewheel speed of 70%). Culture samples were distributed into flasks for culturing, consisting of duplicate untreated controls and duplicate treatments. […] Samples were taken from the flask cultures every few days in order to quantify % lysis, % chytrid infection, and cell dry weight for a duration of about 11 days.

## hydrogen peroxide [H2O2]
[1]; Tables 6 and 7, 0.007 mL/L three times per day
  lysis level with the hydrogen peroxide treatments: less than 30%
[1]; samples from Bioreactor #2330, 0.007 mL/L three times per day, 0 h
  % Lysis (±1SD): 8.3 ± 7.6%
[1]; samples from Bioreactor #2330, 0.007 mL/L three times per day, 24 h
  % Lysis (±1SD): 10.0 ± 4.7%
[1]; samples from Bioreactor #2330, 0.007 mL/L three times per day, 48 h
  % Lysis (±1SD): 12.5 ± 3.5%
[1]; samples from Bioreactor #2330, 0.007 mL/L three times per day, 72 h
  % Lysis (±1SD): 0.0 ± 0.0%
[1]; samples from Bioreactor #2330, 0.007 mL/L three times per day, 120 h
  % Lysis (±1SD): 0.8 ± 1.2%
[1]; samples from Bioreactor #2430 24 hours after transfer, 0.007 mL/L three times per day, 0 h
  % Lysis (±1SD): 0.0 ± 0.0%
[1]; samples from Bioreactor #2430 24 hours after transfer, 0.007 mL/L three times per day, 24 h
  % Lysis (±1SD): 7.5 ± 1.2%
[1]; samples from Bioreactor #2430 24 hours after transfer, 0.007 mL/L three times per day, 48 h
  % Lysis (±1SD): 0.0 ± 0.0%
[1]; samples from Bioreactor #2430 24 hours after transfer, 0.007 mL/L three times per day, 96 h
  % Lysis (±1SD): 4.1 ± 1.2%
[1]; 0.007 mL/L three times per day, 0 h
  % Lysis: 3.3 ± 2.9%
[1]; 0.007 mL/L three times per day, 24 h
  % Lysis: 25.0 ± 9.4%
[1]; 0.007 mL/L three times per day, 96 h
  % Lysis: 16.7 ± 4.7%
[1]; vs control cultures, Tables 6 and 7
  reduction of lysis: 60-80%
[2]; [5]
  % Cell lysis (±1SE): 1.7% ± 1.0%
[2]; [6]
  % Cell lysis (±1SE): 0.8% ± 0.8%
[2]; [7]
  % Cell lysis (±1SE): 3.3% ± 0.0%
[2]; 0.0140 mL/L three times per day, 96 h
  % Cell lysis (±1SE): 3.3% ± 1.7%
[2]; [8]
  % Cell lysis (±1SE): 1.1% ± 0.6%
[2]; [9]
  % Cell lysis (±1SE): 3.3% ± 1.7%
[2]; [10]
  % Cell lysis (±1SE): 5.8% ± 5.8%
[2]; 0.0175 mL/L three times per day, 96 h
  % Cell lysis (±1SE): 5.8% ± 2.5%
[2]; [11]
  % Cell lysis (±1SE): 3.9% ± 2.0%
[2]; [12]
  % Cell lysis (±1SE): 0.8% ± 0.8%
[2]; [13]
  % Cell lysis (±1SE): 1.7% ± 0.0%
[2]; 0.0210 mL/L three times per day, 96 h
  % Cell lysis (±1SE): 18.3% ± 1.7%
[2]; [14]
  % Cell lysis (±1SE): 3.9% ± 0.6%
[2]; [15]
  % Cell lysis (±1SE): 5.0% ± 1.7%
[2]; [16]
  % Cell lysis (±1SE): 9.2% ± 0.8%
[2]; 0.0245 mL/L three times per day, 96 h
  % Cell lysis (±1SE): 51.7% ± 5.0%
[2]; dosages at or above 0.0175 mL/L, after 48-96 hours
  cell lysis level: above 10%
[2]; dosages below 0.0175 mL/L, for at least 96 hours
  cell lysis level: below 10%
[3]; 0.0105 mL/L three times per day, 24 h
  % Cell lysis (±1SE): 3.3% ± 1.7%
[3]; 0.0105 mL/L three times per day, 48 h
  % Cell lysis (±1SE): 5.0% ± 1.7%
[3]; 0.0105 mL/L three times per day, 72 h
  % Cell lysis (±1SE): 3.3% ± 0.0%
[3]; 0.0105 mL/L, for at least 72 hours
  cell lysis level: below 10%
[3]; [5]
  % Cell lysis (±1SE): 4.2% ± 0.8%
[3]; [6]
  % Cell lysis (±1SE): 5.8% ± 2.5%
[3]; [7]
  % Cell lysis (±1SE): 9.2% ± 4.2%
[3]; [8]
  % Cell lysis (±1SE): 2.5% ± 0.8%
[3]; [9]
  % Cell lysis (±1SE): 9.2% ± 2.5%
[3]; [10]
  % Cell lysis (±1SE): 13.3% ± 3.3%
[3]; [11]
  % Cell lysis (±1SE): 4.2% ± 2.5%
[3]; [12]
  % Cell lysis (±1SE): 6.7% ± 1.7%
[3]; [13]
  % Cell lysis (±1SE): 20.0% ± 3.3%
[3]; 0.0210 mL/L, for 48 hours
  cell lysis level: below 10%
[3]; [14]
  % Cell lysis (±1SE): 15.0% ± 0.0%
[3]; [15]
  % Cell lysis (±1SE): 22.5% ± 0.8%
[3]; [16]
  % Cell lysis (±1SE): 27.5% ± 2.5%
[4]; 0.0105 mL/L 1 time per day for 3 d then every other day, day 0
  % Lysis: 0.8 ± 2.0%
[4]; 0.0105 mL/L 1 time per day for 3 d then every other day, day 3
  % Lysis: 0.0 ± 0.0%
[4]; 0.0105 mL/L 1 time per day for 3 d then every other day, day 4
  % Lysis: 1.7 ± 0.0%
[4]; 0.0105 mL/L 1 time per day for 3 d then every other day, day 5
  % Lysis: 1.7 ± 2.4%
[4]; 0.0105 mL/L 1 time per day for 3 d then every other day, day 6
  % Lysis: 3.3 ± 4.7%
[4]; 0.0105 mL/L 1 time per day for 3 d then every other day, day 7
  % Lysis: 0.0 ± 0.0%
[4]; 0.0105 mL/L 1 time per day for 3 d then every other day, day 8
  % Lysis: 0.8 ± 1.2%
[4]; 0.0105 mL/L 1 time per day for 3 d then every other day, day 9
  % Lysis: 0.8 ± 1.2%
[4]; 0.0105 mL/L 1 time per day for 3 d then every other day, day 10
  % Lysis: 0.8 ± 1.2%
[4]; 0.0105 mL/L 1 time per day, day 0
  % Lysis: 0.8 ± 2.0%
[4]; 0.0105 mL/L 1 time per day, day 3
  % Lysis: 0.0 ± 0.0%
[4]; 0.0105 mL/L 1 time per day, day 4
  % Lysis: 1.7 ± 0.0%
[4]; 0.0105 mL/L 1 time per day, day 5
  % Lysis: 1.7 ± 0.0%
[4]; 0.0105 mL/L 1 time per day, day 6
  % Lysis: 0.8 ± 2.0%
[4]; 0.0105 mL/L 1 time per day, day 7
  % Lysis: 0.0 ± 0.0%
[4]; 0.0105 mL/L 1 time per day, day 8
  % Lysis: 1.7 ± 2.4%
[4]; 0.0105 mL/L 1 time per day, day 9
  % Lysis: 7.5 ± 8.3%
[4]; 0.0105 mL/L 1 time per day, day 10
  % Lysis: 0.0 ± 0.0%
[4]; 0.0105 mL/L, for 11 days
  percent lysis: under 10%
[4]; 0.0140 mL/L 1 time per day for 3 d then every other day, day 0
  % Lysis: 0.8 ± 2.0%
[4]; 0.0140 mL/L 1 time per day for 3 d then every other day, day 3
  % Lysis: 4.2 ± 1.2%
[4]; 0.0140 mL/L 1 time per day for 3 d then every other day, day 4
  % Lysis: 10.0 ± 8.7%
[4]; 0.0140 mL/L 1 time per day for 3 d then every other day, day 5
  % Lysis: 15.8 ± 5.9%
[4]; 0.0140 mL/L 1 time per day for 3 d then every other day, day 6
  % Lysis: 6.7 ± 0.0%
[4]; 0.0140 mL/L 1 time per day for 3 d then every other day, day 7
  % Lysis: 13.3 ± 4.7%
[4]; 0.0140 mL/L 1 time per day for 3 d then every other day, day 8
  % Lysis: 13.3 ± 2.4%
[4]; 0.0140 mL/L 1 time per day for 3 d then every other day, day 9
  % Lysis: 5.0 ± 2.4%
[4]; 0.0140 mL/L 1 time per day for 3 d then every other day, day 10
  % Lysis: 15.8 ± 12.9%
[4]; [17]
  % Lysis: 0.8 ± 2.0%
[4]; [18]
  % Lysis: 4.2 ± 1.2%
[4]; [19]
  % Lysis: 10.0 ± 8.7%
[4]; 0.0140 mL/L 1 time per day, day 5
  % Lysis: 10.0 ± 2.4%
[4]; 0.0140 mL/L 1 time per day, day 6
  % Lysis: 9.2 ± 3.5%
[4]; 0.0140 mL/L 1 time per day, day 7
  % Lysis: 20.0 ± 9.4%
[4]; 0.0140 mL/L 1 time per day, day 8
  % Lysis: 6.7 ± 7.0%
[4]; 0.0140 mL/L 1 time per day, day 9
  % Lysis: 21.7 ± 7.1%
[4]; 0.0140 mL/L 1 time per day, day 10
  % Lysis: 9.2 ± 3.5%
[4]; 0.0140 mL/L, by day 7
  percent lysis reached: 20%
[4]; 0.0175 mL/L 1 time per day for 2 d then every other, day 0
  % Lysis: 0.8 ± 2.0%
[4]; 0.0175 mL/L 1 time per day for 2 d then every other, day 3
  % Lysis: 31.7 ± 11.8%
[4]; 0.0175 mL/L 1 time per day for 2 d then every other, day 4
  % Lysis: 22.2 ± 8.5%
[4]; 0.0175 mL/L 1 time per day for 2 d then every other, day 5
  % Lysis: 19.2 ± 17.6%
[4]; 0.0175 mL/L 1 time per day for 2 d then every other, day 6
  % Lysis: 25 ± 0.0%
[4]; 0.0175 mL/L, by day 3 after only being dosed twice
  percent lysis reached: 30%
chytrids; 0.0105 mL/L 3 times per day (discontinued day 5), day 6
  % Chytrid infection: 2.5 ± 1.2%
chytrids; 0.0105 mL/L 3 times per day (discontinued day 5), day 9
  % Chytrid infection: 7.5 ± 3.5%
chytrids; 0.0105 mL/L 3 times per day (discontinued day 5), day 11
  % Chytrid infection: 100.0 ± 0.0%
chytrids; 0.0105 mL/L 3 times per day, day 0
  % Chytrid infection: 0.0 ± 0.0%
chytrids; 0.0105 mL/L 3 times per day, day 3
  % Chytrid infection: 0.8 ± 1.2%
chytrids; 0.0105 mL/L 3 times per day, day 4
  % Chytrid infection: 2.5 ± 3.5%
chytrids; 0.0105 mL/L 3 times per day, day 5
  % Chytrid infection: 1.7 ± 0.0%
chytrids; 0.0140 mL/L 1 time per day (discontinued day 5), day 6
  % Chytrid infection: 2.5 ± 1.2%
chytrids; 0.0140 mL/L 1 time per day (discontinued day 5), day 9
  % Chytrid infection: 0.0 ± 0.0%
chytrids; 0.0140 mL/L 1 time per day (discontinued day 5), day 11
  % Chytrid infection: 35.8 ± 29.5%
chytrids; [17]
  % Chytrid infection: 0.0 ± 0.0%
chytrids; [18]
  % Chytrid infection: 0.0 ± 0.0%
chytrids; [19]
  % Chytrid infection: 0.0 ± 0.0%
chytrids; 0.0140 mL/L 2 times per day (discontinued day 5), day 6
  % Chytrid infection: 5.8 ± 3.5%
chytrids; 0.0140 mL/L 2 times per day (discontinued day 5), day 9
  % Chytrid infection: 43.3 ± 4.7%
chytrids; 0.0140 mL/L 2 times per day (discontinued day 5), day 11
  % Chytrid infection: 97.5 ± 3.5%
chytrids; 0.0140 mL/L 2 times per day, day 0
  % Chytrid infection: 0.0 ± 0.0%
chytrids; 0.0140 mL/L 2 times per day, day 3
  % Chytrid infection: 2.5 ± 1.2%
chytrids; 0.0140 mL/L 2 times per day, day 4
  % Chytrid infection: 2.5 ± 3.5%
chytrids; 0.0140 mL/L 2 times per day, day 5
  % Chytrid infection: 5.0 ± 4.7%
chytrids; 0.0140 mL/L 3 times per day (discontinued day 5), day 6
  % Chytrid infection: 0.0 ± 0.0%
chytrids; 0.0140 mL/L 3 times per day (discontinued day 5), day 9
  % Chytrid infection: 0.0 ± 0.0%
chytrids; 0.0140 mL/L 3 times per day (discontinued day 5), day 11
  % Chytrid infection: 11.7 ± 16.5%
chytrids; 0.0140 mL/L 3 times per day, day 0
  % Chytrid infection: 0.0 ± 0.0%
chytrids; 0.0140 mL/L 3 times per day, day 3
  % Chytrid infection: 3.3 ± 4.7%
chytrids; 0.0140 mL/L 3 times per day, day 4
  % Chytrid infection: 0.0 ± 0.0%
chytrids; 0.0140 mL/L 3 times per day, day 5
  % Chytrid infection: 0.0 ± 0.0%
chytrids; 0.0175 mL/L 1 time per day (discontinued day 5), day 6
  % Chytrid infection: 0.0 ± 0.0%
chytrids; 0.0175 mL/L 1 time per day (discontinued day 5), day 9
  % Chytrid infection: 0.0 ± 0.0%
chytrids; 0.0175 mL/L 1 time per day (discontinued day 5), day 11
  % Chytrid infection: 34.2 ± 27.1%
chytrids; 0.0175 mL/L 1 time per day, day 0
  % Chytrid infection: 0.0 ± 0.0%
chytrids; 0.0175 mL/L 1 time per day, day 3
  % Chytrid infection: 0.8 ± 1.2%
chytrids; 0.0175 mL/L 1 time per day, day 4
  % Chytrid infection: 1.7 ± 0.0%
chytrids; 0.0175 mL/L 1 time per day, day 5
  % Chytrid infection: 1.7 ± 0.0%
chytrids; all treated flasks, until 4-6 days after treatment ended
  chytrid infection: less than 10%
